Experimental data from patent publication US11702404B2, “GLP-1R modulating compounds” (priority 2019, dated 2023).
Like-named read-outs stand apart in the source and are kept apart here.

Assays:
GLP-1R = GLP-1R (Homo sapiens, UniProt P43220); assay: GLP-1R activation: cAMP increase in CHO cells stably expressing GLP-1R; assay type: cell-based
[1] = Microsomal stability, human liver microsomes (predicted hepatic clearance); details: predicted from in vitro microsomal stability data
[2] = cAMP increase, CHO cells stably expressing GLP-1R, 10 point dose response, 30 minutes incubation, read-out: EC50

GLP-1R, sequence (P43220 24-463): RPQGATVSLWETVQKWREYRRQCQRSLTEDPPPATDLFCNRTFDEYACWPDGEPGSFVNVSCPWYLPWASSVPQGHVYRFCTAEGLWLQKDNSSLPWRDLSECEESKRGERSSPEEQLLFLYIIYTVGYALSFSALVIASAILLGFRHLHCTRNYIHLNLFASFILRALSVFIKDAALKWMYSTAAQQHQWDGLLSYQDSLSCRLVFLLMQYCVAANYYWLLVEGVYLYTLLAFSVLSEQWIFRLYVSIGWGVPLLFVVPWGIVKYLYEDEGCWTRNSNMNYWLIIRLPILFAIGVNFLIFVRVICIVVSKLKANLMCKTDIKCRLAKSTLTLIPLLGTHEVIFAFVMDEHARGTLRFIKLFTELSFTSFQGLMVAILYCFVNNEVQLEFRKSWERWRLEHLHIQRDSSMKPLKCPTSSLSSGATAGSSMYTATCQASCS

Row | Structure (SMILES) | EC50 (GLP-1R; [2]) | Predicted Hepatic Clearance (Pred. Cl.) [1] | EC50 (GLP-1R; read-out: EC50) | EC50 (GLP-1R; EC50 (nM))
1 | N#CCC1(Cn2c(Cc3ccc(-c4cccc(OCc5ccc(C#N)cc5F)n4)cc3F)nc3ccc(C(=O)O)cc32)CC1 [Example 16, 2-(4-(6-((4-cyano-2-fluorobenzyl)oxy)pyridin-2-yl)-2-fluorobenzyl)-1-((1-(cyanomethyl)cyclopropyl)methyl)-1H-benzo[d]imidazole-6-carboxylic acid] | 0.55 nM | 5.5 mL/min/kg | – | –
2 | COCCn1c(Cc2cc(F)c(-c3cccc(OCc4ccc(C5=CCN(C(C)=O)CC5)cc4F)n3)cc2F)nc2ccc(C(=O)O)cc21 [Example 902, 2-(4-(6-((4-(1-acetyl-1,2,3,6-tetrahydropyridin-4-yl)-2-fluorobenzyl)oxy)pyridin-2-yl)-2,5-difluorobenzyl)-1-(2-methoxyethyl)-1H-benzo[d]imidazole-6-carboxylic acid] | 6.19 nM | 8.67 mL/min/kg | – | –
3 | COCCn1c(Cc2cc(F)c(-c3cccc(OCc4cc(F)c(C(F)F)cc4F)n3)cc2F)nc2ccc(C(=O)O)cc21 [Example 863] | 5.51 nM | 4.83 mL/min/kg | – | –
4 | COCCn1c(Cc2ccc(-c3cccc(OCc4ccccc4-c4ccccc4)n3)cc2F)nc2ccc(C(=O)O)cc21 [Example 500, 2-(4-(6-([1,1′-biphenyl]-2-ylmethoxy)pyridin-2-yl)-2-fluorobenzyl)-1-(2-methoxyethyl)-1H-benzo[d]imidazole-6-carboxylic acid] | 474 nM | 9.67 mL/min/kg | – | –
5 | N#CCC1(Cn2c(Cc3cc(F)c(-c4ccnc(OCc5ccc(Cl)cc5F)n4)cc3F)nc3ccc(C(=O)O)cc32)CC1 [Example 442, 2-(4-(2-((4-chloro-2-fluorobenzyl)oxy)pyrimidin-4-yl)-2,5-difluorobenzyl)-1-((1-(cyanomethyl)cyclopropyl)methyl)-1H-benzo[d]imidazole-6-carboxylic acid] | 0.14 nM | 3.67 mL/min/kg | – | –
6 | COC1(Cn2c(Cc3cc(F)c(-c4cccc(OCc5ccc(C#N)cc5F)n4)cc3F)nc3ccc(C(=O)O)cc32)CN(S(C)(=O)=O)C1 [Example 688] | 1220 nM | 10.3 mL/min/kg | – | –
7 | O=C(O)c1ccc2nc(Cc3cc(F)c(-c4cccc(OCc5ccc(Cl)cc5)n4)cc3F)n(Cc3ncco3)c2c1 [Example 819] | 0.86 nM | 3.17 mL/min/kg | – | –
8 | N#Cc1ccc(COc2cccc(-c3cc(F)c(Cc4nc5ccc(C(=O)O)cc5n4Cc4cncs4)cc3F)n2)c(F)c1 [Example 706] | 1.31 nM | 12.2 mL/min/kg | – | –
9 | N#Cc1ccc(COc2cccc(-c3cc(F)c(Cc4nc5ccc(C(=O)O)cc5n4CCN4CCOCC4)cc3F)n2)c(F)c1 [Example 561, 2-(4-(6-((4-cyano-2-fluorobenzyl)oxy)pyridin-2-yl)-2,5-difluorobenzyl)-1-(2-morpholinoethyl)-1H-benzo[d]imidazole-6-carboxylic acid] | – | 9.5 mL/min/kg | 24.1 nM | –
10 | COCCn1c(Cc2ccc(-c3cccc(OCc4ccc(C#N)cc4F)n3)c(C)c2)nc2ccc(C(=O)O)cc21 [Example 21, 2-(4-(6-((4-cyano-2-fluorobenzyl)oxy)pyridin-2-yl)-3-methylbenzyl)-1-(2-methoxyethyl)-1H-benzo[d]imidazole-6-carboxylic acid] | – | <1.83 mL/min/kg | – | 70.9 nM
11 | COCCn1c(Cc2ccc(-c3cccc(OCc4cccc5scnc45)n3)cc2F)nc2ccc(C(=O)O)cc21 [Example 146, 2-(4-(6-(benzo[d]thiazol-4-ylmethoxy)pyridin-2-yl)-2-fluorobenzyl)-1-(2-methoxyethyl)-1H-benzo[d]imidazole-6-carboxylic acid] | 36.4 nM | 7.33 mL/min/kg | – | –
12 | COCC1(Cn2c(Cc3cc(F)c(-c4cccc(OCc5ccc(C#N)cc5F)n4)cc3F)nc3ccc(C(=O)O)cc32)CCC1 [Example 743] | 2.48 nM | 6.67 mL/min/kg | – | –
13 | CC(C)(O)[C@H](F)Cn1c(Cc2ccc(-c3cccc(OCc4ccc(C#N)cc4F)n3)cc2F)nc2ccc(C(=O)O)cc21 [Example 278, (R)-2-(4-(6-((4-cyano-2-fluorobenzyl)oxy)pyridin-2-yl)-2-fluorobenzyl)-1-(2-fluoro-3-hydroxy-3-methylbutyl)-1H-benzo[d]imidazole-6-carboxylic acid] | 1640 nM | 3 mL/min/kg | – | –
14 | COCCn1c(Cc2ccc(-c3cccc(OCc4ccc(C#N)cc4OC4CC4)n3)cc2F)nc2ccc(C(=O)O)cc21 [Example 346, 2-(4-(6-((4-cyano-2-cyclopropoxybenzyl)oxy)pyridin-2-yl)-2-fluorobenzyl)-1-(2-methoxyethyl)-1H-benzo[d]imidazole-6-carboxylic acid] | 94.6 nM | 7.83 mL/min/kg | – | –
15 | N#Cc1ccc(COc2nccc(-c3ccc(Cc4nc5c(F)cc(C(=O)O)cc5n4CC4(CF)CC4)cc3F)n2)c(F)c1 [Example 299, 2-(4-(2-((4-cyano-2-fluorobenzyl)oxy)pyrimidin-4-yl)-3-fluorobenzyl)-4-fluoro-1-((1-(fluoromethyl)cyclopropyl)methyl)-1H-benzo[d]imidazole-6-carboxylic acid] | 0.4 nM | 5.17 mL/min/kg | – | –
16 | N#Cc1ccc(COc2cccc(-c3cc(F)c(Cc4nc5cc(F)c(C(=O)O)cc5n4CC4(CF)CC4)cc3F)n2)c(F)c1 [Example 205, 2-(4-(6-((4-cyano-2-fluorobenzyl)oxy)pyridin-2-yl)-2,5-difluorobenzyl)-5-fluoro-1-((1-(fluoromethyl)cyclopropyl)methyl)-1H-benzo[d]imidazole-6-carboxylic acid] | 3.23 nM | 5 mL/min/kg | – | –
17 | COCCn1c(Cc2cc(F)c(-c3cccc(OCc4ccc(F)cc4F)n3)cc2F)nc2ccc(C(=O)O)cc21 [Example 815] | 2.49 nM | 1.83 mL/min/kg | – | –
18 | N#Cc1ccc(COc2cccc(-c3cc(F)c(Cc4nc5c(F)cc(C(=O)O)cc5n4C[C@@H]4CCCO4)cc3F)n2)c(F)c1 [Example 831] | 0.24 nM | 2.83 mL/min/kg | – | –
19 | COCCn1c(Cc2ccc(-c3cccc(OCc4ccc(C(F)(F)F)cc4F)n3)cc2F)nc2ccc(C(=O)O)cc21 [Example 480, 2-[[2-fluoro-4-[6-[[2-fluoro-4-(trifluoromethyl)phenyl]methoxy]-2-pyridyl]phenyl]methyl]-3-(2-methoxyethyl)benzimidazole-5-carboxylic acid] | 6.59 nM | <1.83 mL/min/kg | – | –
20 | COc1cc(C#N)ccc1COc1cccc(-c2ccc(Cc3nc4ccc(C(=O)O)cc4n3CC3(CF)CC3)c(F)c2)n1 [Example 367, 2-(4-(6-((4-cyano-2-methoxybenzyl)oxy)pyridin-2-yl)-2-fluorobenzyl)-1-((1-(fluoromethyl)cyclopropyl)methyl)-1H-benzo[d]imidazole-6-carboxylic acid] | 0.86 nM | 10.8 mL/min/kg | – | –
21 | COC(C)(C)Cn1c(Cc2cc(F)c(-c3cccc(OCc4ccc(C#N)cc4F)n3)cc2F)nc2ccc(C(=O)O)cc21 [Example 586, 2-(4-(6-((4-cyano-2-fluorobenzyl)oxy)pyridin-2-yl)-2,5-difluorobenzyl)-1-(2-methoxy-2-methylpropyl)-1H-benzo[d]imidazole-6-carboxylic acid] | 0.54 nM | 7.67 mL/min/kg | – | –
22 | COC(Cn1c(Cc2cc(F)c(-c3cccc(OCc4ccc(C#N)cc4F)n3)cc2F)nc2ccc(C(=O)O)cc21)C(F)(F)F (stereo not shown) [Example 715] | 4.01 nM | 2 mL/min/kg | – | –
23 | COCCn1c(Cc2ccc(-c3cccc(OCc4ccc5c(c4)OC(F)(F)O5)n3)cc2F)nc2ccc(C(=O)O)cc21 [Example 250, 2-(4-(6-((2,2-difluorobenzo[d][1,3]dioxol-5-yl)methoxy)pyridin-2-yl)-2-fluorobenzyl)-1-(2-methoxyethyl)-1H-benzo[d]imidazole-6-carboxylic acid] | 11.7 nM | <1.83 mL/min/kg | – | –
24 | COCCn1c(Cc2cc(F)c(-c3nc(OCc4ccc(C#N)cc4F)ccc3F)cc2F)nc2c(F)cc(C(=O)O)cc21 [Example 791] | 2.75 nM | 4.83 mL/min/kg | – | –
25 | N#Cc1ccc(COc2cccc(-c3ccc(Cc4nc5ccc(C(=O)O)cc5n4Cc4cocn4)c(F)c3)n2)c(F)c1 [Example 407, 2-(4-(6-((4-cyano-2-fluorobenzyl)oxy)pyridin-2-yl)-2-fluorobenzyl)-1-(oxazol-4-ylmethyl)-1H-benzo[d]imidazole-6-carboxylic acid] | 4.69 nM | 3.75 mL/min/kg | – | –
26 | N#Cc1ccc(COc2cccc(-c3ccc(Cc4nc5ccc(C(=O)O)cc5n4CC4(Br)CC4)c(F)c3)n2)c(F)c1 [Example 289, 1-((1-bromocyclopropyl)methyl)-2-(4-(6-((4-cyano-2-fluorobenzyl)oxy)pyridin-2-yl)-2-fluorobenzyl)-1H-benzo[d]imidazole-6-carboxylic acid] | 3.02 nM | 1.92 mL/min/kg | – | –
27 | COCCn1c(Cc2ccc(-c3cccc(NC(=O)c4ccccc4)n3)cc2F)nc2ccc(C(=O)O)cc21 [Example 116, 2-(4-(6-benzamidopyridin-2-yl)-2-fluorobenzyl)-1-(2-methoxyethyl)-1H-benzo[d]imidazole-6-carboxylic acid] | 2520 nM | 7.33 mL/min/kg | – | –
28 | COc1cc(C#N)ccc1COc1nccc(-c2cc(F)c(Cc3nc4ccc(C(=O)O)cc4n3CC3(CF)CC3)cc2F)n1 [Example 430, 2-(4-(2-((4-cyano-2-methoxybenzyl)oxy)pyrimidin-4-yl)-2,5-difluorobenzyl)-1-((1-(fluoromethyl)cyclopropyl)methyl)-1H-benzo[d]imidazole-6-carboxylic acid] | 0.67 nM | <1.83 mL/min/kg | – | –
29 | O=C(O)c1cc(F)c2nc(Cc3cc(F)c(-c4nc(OCc5ccc(C(F)F)cc5F)ccc4F)cc3F)n(C[C@@H]3CCO3)c2c1 [Example 769] | 0.03 nM | 3.67 mL/min/kg | – | –
